# Measurements published in the METLIN SMRT retention time set (Domingo-Almenara et al. 2019).
# Experiment: gradient 5% acetonitrile 3 min, to 50% in 2 min, to 85% in 15 min, held 3 min, 100 µL/min
# Settings: column: Zorbax Extend-C18 2.1 x 50 mm; eluents: water / acetonitrile, 0.1% formic acid
# How it was run: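 Standards, all pure, were combined into mixtures of ~100 molecules and run at 100 μL/min on a Zorbax Extend-C18 column (2.1 × 50 mm, 1.8 μm) with water and acetonitrile, each containing 0.1% formic acid. A coupled quadrupole time-of-flight mass spectrometer operated in positive and negative ionization mode. Retention time values come from computationally picked adduct peaks, each inspected manually.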
row,SMILES,RP-LC retention time [s]
1,O=C(Cn1c(=O)cc(-c2nc(C3CC3)no2)c2ccccc21)Nc1ccc2c(c1)OCCO2,906
2,COCCN1C(=O)Cc2ccccc2C1C(=O)NCc1ccccc1F (stereo not drawn),732
3,Cc1ccc(C(C)NC(=O)C2CCN(c3nccnc3Oc3ccccc3)CC2)c(C)c1 (stereo not drawn),1090
4,Cc1cnc(C2CN(Cc3ccc(F)cc3F)C2)n1Cc1cccnc1,544
5,O=C(Cn1cc2c(n1)CCCCC2)Nc1ccc(Br)cc1F,1050
6,O=C(Nc1cnc(N2CCCCC2)nc1)c1ccc(Br)o1,927
7,Cc1ccc(C)c(NC(=O)CN(C)S(=O)(=O)c2cc(C(=O)N3CCC(C)CC3)n(C)c2)c1,924
8,COc1c(NC(C)=O)c2ccccc2c2ccccc12,830
9,O=C(Cc1csc2nc(-c3ccccc3)cn12)Nc1ccc(F)cc1F,809
10,Cc1sc2ccn(C)c(=O)c2c1C(=O)NCc1ccc(N2CCCCC2)cc1,580
11,CCn1cc(CC(=O)NCC2CCCCC2)c2cccnc21,783
12,CNC(=O)c1cn(CC(C)C)c(=O)c2ccccc12,853
13,Cc1ccccc1Nc1c(-c2cc(Br)ccc2F)nc2cccc(C)n12,814
14,O=c1c2cc(-c3ccc4c(c3)OCO4)nn2ccn1Cc1nc(-c2ccc(F)c(Cl)c2)no1,805
15,CC(C)n1c(N2CCN(C(=O)COc3ccc(Cl)cc3)CC2)cc(=O)n(C(C)C)c1=O,928
16,O=C(COC(=O)C(c1ccccc1)c1ccccc1)Nc1ccc2c(c1)OCO2,940
17,CC1(C)CC(NC(=O)COc2ccc(Cl)cc2)CC(C)(C)N1,623
18,O=C(Nc1ccncc1)c1cc([N+](=O)[O-])ccc1Cl,638
19,CCCNC(=O)N(C)Cc1cccnc1OCC,680
20,CCOCCCNC(=O)C1(C)Cn2c(ccc2-c2ccco2)C(=O)N1c1ccc(F)cc1 (stereo not drawn),808
21,Cc1cc(C)c2oc(C(=O)NCC(c3ccccc3)N(C)C)cc(=O)c2c1 (stereo not drawn),636
22,CCOC(=O)c1c(C)n(C)c2ccc(O)cc12,803

row,SMILES,RP-LC retention time [s]
1,COCCNC(=O)N1CCC(OC2CCN(Cc3ccccc3)CC2)CC1,571
2,CCOc1ccccc1CNC(=O)c1cc2c(=O)n(C)ccc2n1C,713
3,Cn1nnc2cc(C(=O)N3CCCCC3)ccc21,738
4,Cc1cc(N2CCN(c3ccccn3)CC2)n2nc(-c3ccco3)nc2n1,584
5,COCCNC(=O)N1CCCN(C2=NS(=O)(=O)C(c3ccc(F)cc3)=C2C)CC1,669
6,O=C(Cn1cccc1-c1nnc(-c2ccccc2)o1)N1CCc2ccccc21,1020
7,Cn1cc(-c2cc3n(n2)CCCN3C(=O)CCC(=O)NCc2ccco2)c2ccccc21,754
8,O=C(Nc1nc(-c2cccc([N+](=O)[O-])c2)cs1)c1cccc(Br)c1,1170
9,O=C(Nc1cccn2c(C3CCC3)nnc12)c1cc2ccccc2[nH]1,818
10,O=C(CCNc1c(-c2ccccc2)nc2cnccn12)NCc1ccc(F)cc1,687
11,CN1CCC(NC(=O)C2CCN(C(=O)c3ncn4c3COC(c3ccc(F)cc3)C4)CC2)CC1 (stereo not drawn),599
12,O=C(CN1c2ccc(F)cc2-c2ccccc2S1(=O)=O)NCc1ccc2c(c1)OCO2,913
13,CCN1CCCn2cc(S(=O)(=O)Nc3ccc(Cl)cc3F)cc2C1=O,763
14,COc1cccc(NS(=O)(=O)c2cc(-c3[nH]ncc3C(=O)N(C)C)oc2C)c1,668
15,Cc1oc(-c2[nH]ncc2C(=O)N2CCCC2)cc1S(=O)(=O)NCc1ccc(Cl)cc1,737
16,CC(C)c1ccc(N2C(=O)C3N=NN(Cc4nc(-c5cccc(Br)c5)no4)C3C2=O)cc1 (stereo not drawn),1170
17,C[C@@H]1CN(CC(=O)Nc2ccc3c(c2)Cc2cccc(-c4cc(=O)cc(N5CCOCC5)o4)c2S3)C[C@H](C)O1,748
18,CCC(=O)NCC12CCCC=C1NC(=O)CC2 (stereo not drawn),597
19,O=C(O)c1cc(-c2c[nH]c3ccccc23)nc2ccccc12,624
20,CCc1nc(-c2ccc(-c3noc(CNS(=O)(=O)c4ccccc4)n3)cc2)cs1,1020
21,CCC(C(=O)NCCCN1CCCCC1)n1nc(C)c2sc3ccccc3c2c1=O (stereo not drawn),691
22,N#Cc1ccc(-c2nc(-c3ccc4c(c3)nnn4CCN3CCCCC3)no2)cc1,676

row,SMILES,RP-LC retention time [s]
1,COc1nc2ccccc2nc1N1CCCC(C(=O)N2CCC(C)CC2)C1 (stereo not drawn),1110
2,CC(=O)Nc1ccc(C2(C(=O)NCc3cccc(C)c3)CCC2)cc1,773
3,Cc1ccc(CNC(=O)Cn2ncc3c(c2=O)N(CC2CC2)C(=O)CS3)cc1,784
4,Cc1nn(CC(=O)NCc2ccco2)c(=O)c2c(C)n(-c3ccccc3)nc12,764
5,O=C(CSc1cc(-n2ccc(C(=O)NC3CC3)n2)ncn1)Nc1ccc(Cl)cc1F,867
6,COc1ccc(CNC(=O)CN2CCN(Cc3ccc(C)cc3)C(=O)C2=O)cc1,734
7,CCN1CCN(c2cc(C)c3cc(NC(=O)COc4ccc(F)cc4)ccc3n2)CC1,594
8,O=C(COc1ccc([N+](=O)[O-])cc1)Nc1ccc(S(=O)(=O)N2CCCCC2)cc1,886
9,Cc1sc(-c2cc(C(F)(F)F)[nH]n2)cc1S(=O)(=O)N1CC=C(c2ccccc2)CC1,1190
10,Cc1ccsc1C(=O)N1CCC2(CC1)CC(N1CCOCC1)CCO2 (stereo not drawn),577
11,Cc1cn(C)c(CC(=O)NCCCN2CCCC(C)C2)c1C(=O)O (stereo not drawn),586
12,CC(C)C(=O)N1CC[C@H](CO)[C@H](NC(=O)C2CC2)C1,583
13,O=C(c1cccc(Br)c1)N1CCC(n2c(-c3ccco3)nc3cccnc32)C1 (stereo not drawn),814
14,CN(CC(=O)N1CCOCC1)c1nc(C2CC2)nc2c1CCC2,560
15,Cc1ccc(Cl)cc1N1CCN(C(=O)c2c(C)oc3c2C2=NCCN2C=N3)CC1,705
16,CC1(C)CC(=O)c2c(O)cc(OCC(=O)N3CCN(c4ccc(Cl)cc4)CC3)cc2O1,1050
17,CN(Cc1ccccc1)c1ncc(C(=O)Nc2ccccc2)c(N)n1,731
18,CCOc1ccc(NS(=O)(=O)c2cc3c4c(c2)CCC(=O)N4CCC3)cc1,818
19,Cc1ccc(Cl)cc1N1CCN(c2cc(C(=O)O)c3cc(NC(=O)CC(C)C)ccc3n2)CC1,828
20,O=C(NCc1cccs1)C1CCN(Cc2cc3ccccc3n2Cc2cccc(F)c2)CC1,779
21,COCCN(CCOC)c1ncnc2c1cnn2-c1ccc(C)cc1C,902
22,CC(C)c1nnc(C2CN(C(=O)c3cccn3C)CC23CCOCC3)o1 (stereo not drawn),639

row,SMILES,RP-LC retention time [s]
1,CN1C(=O)[C@]2(CO)SSC1(Cc1cn([C@]34C[C@@]56SS[C@@](CO)(C(=O)N5[C@H]3Nc3ccccc34)N(C)C6=O)c3ccccc13)C(=O)N2C,898
2,Cc1ccc(S(=O)(=O)CCC(=O)N2CCCC2c2nc(-c3ccc(Cl)cc3)no2)cc1 (stereo not drawn),1060
3,Cc1ccc(Cn2c(CN3CC(C)OC(C)C3)nc3c2c(=O)n(C)c(=O)n3C)cc1 (stereo not drawn),700
4,CC(C)Cn1cc(S(=O)(=O)Nc2ccc(Cl)cc2F)c2cccnc21,1010
5,COc1ccc(NC(=O)Cn2nc3n(c2=O)CCCCC3)cc1,709
6,COc1ccc(-c2nc3cccnc3n2C2CCN(S(=O)(=O)Cc3ccccc3)C2)cc1 (stereo not drawn),874
7,CCOc1ccc(-c2nc(-c3cccc(-c4ccnn4C)c3)no2)cc1,1230
8,Cc1noc2ncn(CC(=O)NCc3ccc(F)cc3)c(=O)c12,724
9,CCCn1c(=O)c(C)nc2cc(-c3noc(Cc4ccc(OC)cc4)n3)ccc21,1040
10,CCn1ccc(C(=O)N2CCCC2c2ccc(F)cc2)n1 (stereo not drawn),816
11,CCc1nn(C)c(=O)c2cc(S(=O)(=O)NCc3ccccc3F)cn12,860
12,Cn1cc(S(=O)(=O)N2CCCCC2)cc1C(=O)N1CCN(c2ccc(F)cc2)CC1,940
13,CCC(CC)C(=O)Nc1nc(-c2ccccc2)c(-c2ccccc2)o1,1040
14,Cn1cc(-c2nc(C(=O)Nc3ccc(F)cc3F)cs2)c2cccnc21,1070
15,O=C(NCCC1=CCCCC1)C1CCN(Cc2cc3ccccc3n2Cc2ccccc2Cl)CC1,924
16,Cc1ccc(S(=O)(=O)NCC(c2cccnc2)c2cn(C)c3ccccc23)cc1C (stereo not drawn),790
17,COc1cc(OC)c(NC(=O)Nc2c(-c3ccc(F)cc3)nc3ccccn23)cc1Cl,708
18,O=C(c1ccoc1)N1CCCCC1c1nc(-c2cnccn2)no1 (stereo not drawn),664
19,CCOc1nc2ccccc2nc1N1CCCC(C(=O)NCc2cccc(C)c2)C1 (stereo not drawn),1170
20,Cc1ccc(-n2c(=O)c3c(cc(C)n3C)n(CC(=O)Nc3cc(Cl)ccc3C)c2=O)cc1,952
21,CC(C)CNC(=O)C1CC(=O)N(CCc2c[nH]c3ccc(Cl)cc23)C1 (stereo not drawn),781
22,CCC(C)NC(=O)Cn1nc(C)c2sc(-c3ccccc3)nc2c1=O (stereo not drawn),765
